We go through 12 compounds from patent US20050027016A1, “Polyamine compounds and compositions for use in conjection with cancer therapy” (priority 2002, published 2005).

Data set [1] relates to Cytoxan-induced alopecia in the rat model. The data set is classed as in vivo. The note with it: rat pups, 35 ug/gm i.p., approximately 7 days after challenge. An excerpt:
FIGS. 6A-6E illustrate the efficacy of each of the indicated chemoprotective polyamines in protecting against Cytoxan-induced alopecia in the rat model Hussein et al., 1990, infra). In this protocol (See Example 2), chemoprotective polyamines are applied topically to the rat pups' backs in an alcohol:water delivery vehicle, once per day, for five days before and five days after a single systemic dose of Cytoxan.
The efficacy of […] polyamines in reducing or preventing chemotherapy-induced alopecia in a rat model was examined. This animal model mimics many of the features found in chemotherapy-induced alopecia seen in humans and is considered a clinically relevant model for testing novel therapeutics.
Induction of alopecia by cytoxan (CTX). Lactating Sprague Dawley mother rats with rat pups were purchased from Harlan Sprague Dawley (Indianapolis, Ind.). The mother rats were given food and water ad libitum. The rats pups were tested in the model of chemotherapy-induced alopecia described by Hussein A. M. et al., Science: 249, 1564 (1990). Cytoxan (CTX), a chemotherapeutic widely used in the treatment of cancer, was used to induce alopecia in the rats. […]
Approximately 7 to 10 days after CTX treatment, the pups were evaluated for alopecia Hair loss was evaluated using a modified alopecia-scoring index described by Chen G. et al., Int. […]

For another data set, the system named is 23SK skin cells. Kind of data set: Cell cycle distribution by flow cytometry in 23SK skin cells. The data set is classed as cell-based, human. Particulars: for Cell Cycle Distribution At IC80 Dose: G1 / Cell Cycle Distribution At IC80 Dose: G2/M / Cell Cycle Distribution At IC80 Dose: S: 23SK cells. An excerpt:
FIGS. 5A-5D are cell histograms showing the results from flow cytometry analysis of chemoprotective polyamine-treated 23SK skin cells.
In FIG. 5, cell histograms showing the results from flow cytometry analysis of chemoprotective polyamine-treated 23SK skin cells are shown. […] The transient nature of the cell cycle block induced by chemoprotective polyamines is believed to be an important aspect of their efficacy, i.e., their ability to block cell cycle progression in stem cells during the course of chemo- or radiotherapy, and the resumption of normal stem cell division after a given cancer therapy course has been completed.

The test system of data set [2] is primary, diploid fibroblasts isolated from human skin. The data set is described as follows: In vitro growth inhibition of primary diploid human skin fibroblasts. It is filed as cell-based. The procedure:
FIG. 2 illustrates the relationship between the number of aliphatic carbon atoms in each chemoprotective polyamine side chain (‘arm’) and the respective IC50 dose for inhibition of human fibroblast growth.
The in vitro growth inhibitory effects of certain of the chemoprotective polyamines of the invention were measured using primary, diploid fibroblasts isolated from human skin.

A further data set deals with helical B-DNA. The data set is described as follows: DNA binding/denaturation/precipitation from solution. An excerpt:
The chemoprotective polyamines of the invention are also able to bind, denature and precipitate DNA from solution As is known in the field, as the concentration of polyamine is increased, there is a point where polyamine binding to helical B-DNA induces single-stranded ‘bubbles’ and conversion to other forms of DNA structure, such as 2-DNA (Feuerstein, B. et al. Nuc. Acids Res. 17:6883-6892, 1989; Basu, H. and Marton, L. Biochem. J. 244:243-246, 1987), as well as precipitating the DNA from solution.
This relationship between arm length of the chemoprotective polyamine and increased ability to disrupt and denature B-DNA structure is also a unique aspect of this invention. The increased ability to bind DNA and disrupt its helical structure may also contribute to the molecule's ability to protect cellular DNA against electrophilic chemotherapy drug metabolites and against oxygen free radicals generated during radiotherapy. Both of these toxic modalities are believed to require normal B-DNA helical structure within the cell's nuclear DNA in order to achieve chemical or physical disruption of the cellular DNA, the first step in the apoptotic cascade.

The test system of the next data set is p21. Kind of data set: p21 induction in 23SK human skin cells by western analysis. It is filed as cell-based. The note with it: 30 hr exposure. The procedure: FIGS. 3A and 3B illustrate the level of induced p21 protein seen in diploid human fibroblasts after a 30 hr exposure to each of the indicated chemoprotective polyamines. […] In these experiments, the 23SK human skin cells were exposed for 30 hr to an “ICso” dose of each of the indicated chemoprotective polyamines and then lysed. Cell extracts were then prepared in order to measure p21 levels by western analysis (FIG. 3A).
FIG. 3 illustrates that chemoprotective polyamines are able to induce expression of the negative cell cycle regulatory protein, p21, after exposing the human skin cells to the polyamine molecules. […] In these experiments, the 23SK human skin cells were exposed for 30 hr to an “IC80” dose of each of the indicated chemoprotective polyamines and then lysed. Cell extracts were then prepared in order to measure p21 levels by western analysis (FIG. 3A). Although the ability of modified polyamines to induce p21 is known in the literature (Kramer, D. et al., Cancer Res. 59:1278-1286, 1999), it is a novel aspect of this invention that those chemoprotective polyamines with longer aliphatic “arms” were better able to induce expression of p21 as shown in FIG. 4.

The mark [3] stands for this setting: Expt. 1, read-out: IC50 (drug concentration that caused a 50% inhibition of cell growth), Expt. 1.
The mark [4] stands for this setting: Expt. 2, read-out: IC50 (drug concentration that caused a 50% inhibition of cell growth), Expt. 2.
Setting [5] is: Expt. 1 (first or only value in cell), read-out: DNA Bind/ppt. IC50, Expt. 1.
The mark [6] stands for this setting: Expt. 2 (second value in cell), read-out: DNA Bind/ppt. IC50, Expt. 2.
The mark [7] stands for this setting: 23SK cells treated for 72 hr (FIG. 5C).

Structures are written as SMILES. Like-named read-outs stand apart in the source and are kept apart here.

For `O=P1(N(CCCl)CCCl)NCCCO1` (stereo not drawn) [CTX, cyclophosphamide(cytoxan)], in data set [1], the hair loss induced was determined as 100%.
Regarding `CN[C@H]1CCc2cc(OC)c(OC)c(OC)c2-c2ccc(OC)c(=O)cc21` [Colcemid, reference compound], in the data set with 23SK skin cells, the “Cell Cycle Distribution At IC80 Dose: G1” value was determined as 8%, the “Cell Cycle Distribution At IC80 Dose: G2/M” value was determined as 81% and the “Cell Cycle Distribution At IC80 Dose: S” value was 11%.
As for `CCNCCCCNCC=C(CNCC)CNCCCCNCC` [PrC-110], in the data set on 23SK skin cells, the “Cell Cycle Distribution At IC80 Dose: G1” value is given as 60%, the “Cell Cycle Distribution At IC80 Dose: G2/M” value was found to be 14% and the “Cell Cycle Distribution At IC80 Dose: S” value amounted to 26%.
For `CCNCCCCNCCCCNCC=C(CNCC)CNCCCCNCCCCNCC` [PrC-111], in the data set on 23SK skin cells, the “Cell Cycle Distribution At IC80 Dose: G1” value turned out to be 60%, the “Cell Cycle Distribution At IC80 Dose: G2/M” value amounted to 14% and the “Cell Cycle Distribution At IC80 Dose: S” value is given as 25%.
The like results for `CCNCCCCNCCCCNCCCCNCC=C(CNCC)CNCCCCNCCCCNCCCCNCC` [PrC-112] were, in that order, 61%, 16% and 23%.
With `CCNCCCCNCCCCNCCCCNCCCCNCC=C(CNCC)CNCCCCNCCCCNCCCCNCCCCNCC` [PrC-113], in the data set with 23SK skin cells, the “Cell Cycle Distribution At IC80 Dose: G1” value worked out at 77%, the “Cell Cycle Distribution At IC80 Dose: G2/M” value is recorded as 14% and the “Cell Cycle Distribution At IC80 Dose: S” value came out at 8%.
Take `CCNCCCCNCC=C(CS)CNCCCCNCC` [PrC-114]: the IC50 stood at 850 µM in data set [2] (setting [3]), 240 µM in data set [2] (setting [4]) and 94 µM at helical B-DNA (setting [5]).
For `CCNCCCCNCCCCNCC=C(CS)CNCCCCNCCCCNCC` [PrC-115], the IC50 in data set [2] (setting [3]) stood at 4100 µM; in data set [2] (setting [4]) it was 1090 µM; on helical B-DNA (setting [5]), 37 µM; at helical B-DNA (setting [6]), 83 µM.
In the case of `CCNCCCCNCCCCNCCCCNCC=C(CS)CNCCCCNCCCCNCCCCNCC` [PrC-116], in data set [2] (setting [3]), the IC50 came to 5.8 µM. The IC50 at helical B-DNA (setting [5]) worked out at 82 µM. In addition, the IC50 on helical B-DNA (setting [6]) is 63 µM. In addition, the “p21 fold-induction at IC80 Dose” value in the data set on p21 was 2.32 fold. Further, in the data set on 23SK skin cells, the “Cell Cycle Distribution At IC80 Dose: G1” value worked out at 66%, the “Cell Cycle Distribution At IC80 Dose: G2/M” value came to 23% and the “Cell Cycle Distribution At IC80 Dose: S” value amounted to 11%.
Take `CCNCCCCNCCCCNCCCCNCCCCNCC=C(CS)CNCCCCNCCCCNCCCCNCCCCNCC` [PrC-117]: the IC50 in data set [2] (setting [3]) came out at 0.32 µM. Moreover, the IC50 in data set [2] (setting [4]) was determined as 0.24 µM. The IC50 at helical B-DNA (setting [5]) is 58 µM. The IC50 on helical B-DNA (setting [6]) amounted to 57 µM. Moreover, the “p21 fold-induction at IC80 Dose” value in the data set on p21 is listed as “˜3.0 fold”. In the data set with 23SK skin cells (setting [7]), the “cells in G1 compartment” value is given as 86.23% and the “cells in S+G2 compartments” value stood at 13.77%. Moreover, in the data set on 23SK skin cells, the “Cell Cycle Distribution At IC80 Dose: G1” value amounted to 86%, the “Cell Cycle Distribution At IC80 Dose: G2/M” value was 3% and the “Cell Cycle Distribution At IC80 Dose: S” value worked out at 11%. In addition, the “distribution within cell cycle compartments after drug removal” value in the data set with 23SK skin cells (72 hr treatment, then 48 hr in medium devoid of compound (FIG. 5D)) was “basically returned to that seen in cells previously untreated with chemoprotective polyamine”.
Consider `CCNCCCCNCCCCNCCCCNCCCCNCC=C(CNC)CNCCCCNCCCCNCCCCNCCCCNCC` [PrC-120], for which the IC50 is 0.22 µM in data set [2] (setting [3]), 0.18 µM in data set [2] (setting [4]) and 57 µM at helical B-DNA (setting [5]). Moreover, the “p21 fold-induction at IC80 Dose” value in the data set on p21 is on record as 2.01 fold.
Take `CCNCCCCNCCCCNCCCCNCCCCNCC=C(CNCCCCNCCCCNCCCCNCCCCNCC)CN(C)C` [PrC-121]: in data set [2] (setting [3]), the IC50 stood at 0.15 µM. Further, the IC50 at helical B-DNA (setting [5]) was found to be 49 µM. Also, the “p21 fold-induction at IC80 Dose” value in the data set on p21 turned out to be 3.26 fold. For the same compound, in the data set with 23SK skin cells, the “Cell Cycle Distribution At IC80 Dose: G1” value came out at 76%, the “Cell Cycle Distribution At IC80 Dose: G2/M” value is 20% and the “Cell Cycle Distribution At IC80 Dose: S” value is given as 4%.
